Assay results from ChEMBL document CHEMBL1201862, “PubChem BioAssay data set” (2004).
The source made the active and inactive calls. The rule behind the calls is not given here.

Biological target: T1, Exodeoxyribonuclease V (Escherichia coli (strain K12), UniProt P04993+P07648+P08394)
T1 sequence (P04993 whole entry): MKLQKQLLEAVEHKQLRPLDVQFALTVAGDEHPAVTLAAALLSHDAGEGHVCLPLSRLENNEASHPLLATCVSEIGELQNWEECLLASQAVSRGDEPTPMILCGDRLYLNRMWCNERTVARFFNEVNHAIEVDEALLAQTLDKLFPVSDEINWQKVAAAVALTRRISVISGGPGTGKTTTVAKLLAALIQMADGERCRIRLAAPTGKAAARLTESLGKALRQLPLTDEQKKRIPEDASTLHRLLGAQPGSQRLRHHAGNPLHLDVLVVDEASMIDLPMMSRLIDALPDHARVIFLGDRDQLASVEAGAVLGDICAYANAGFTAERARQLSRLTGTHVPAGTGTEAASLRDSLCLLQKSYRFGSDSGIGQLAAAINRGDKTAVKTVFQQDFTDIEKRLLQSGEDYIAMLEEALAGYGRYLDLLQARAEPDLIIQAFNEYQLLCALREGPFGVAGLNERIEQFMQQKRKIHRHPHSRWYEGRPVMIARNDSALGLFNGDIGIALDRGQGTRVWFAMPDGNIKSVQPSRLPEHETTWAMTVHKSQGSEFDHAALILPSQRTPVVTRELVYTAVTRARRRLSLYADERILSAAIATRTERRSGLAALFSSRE
T1 sequence (P07648 whole entry): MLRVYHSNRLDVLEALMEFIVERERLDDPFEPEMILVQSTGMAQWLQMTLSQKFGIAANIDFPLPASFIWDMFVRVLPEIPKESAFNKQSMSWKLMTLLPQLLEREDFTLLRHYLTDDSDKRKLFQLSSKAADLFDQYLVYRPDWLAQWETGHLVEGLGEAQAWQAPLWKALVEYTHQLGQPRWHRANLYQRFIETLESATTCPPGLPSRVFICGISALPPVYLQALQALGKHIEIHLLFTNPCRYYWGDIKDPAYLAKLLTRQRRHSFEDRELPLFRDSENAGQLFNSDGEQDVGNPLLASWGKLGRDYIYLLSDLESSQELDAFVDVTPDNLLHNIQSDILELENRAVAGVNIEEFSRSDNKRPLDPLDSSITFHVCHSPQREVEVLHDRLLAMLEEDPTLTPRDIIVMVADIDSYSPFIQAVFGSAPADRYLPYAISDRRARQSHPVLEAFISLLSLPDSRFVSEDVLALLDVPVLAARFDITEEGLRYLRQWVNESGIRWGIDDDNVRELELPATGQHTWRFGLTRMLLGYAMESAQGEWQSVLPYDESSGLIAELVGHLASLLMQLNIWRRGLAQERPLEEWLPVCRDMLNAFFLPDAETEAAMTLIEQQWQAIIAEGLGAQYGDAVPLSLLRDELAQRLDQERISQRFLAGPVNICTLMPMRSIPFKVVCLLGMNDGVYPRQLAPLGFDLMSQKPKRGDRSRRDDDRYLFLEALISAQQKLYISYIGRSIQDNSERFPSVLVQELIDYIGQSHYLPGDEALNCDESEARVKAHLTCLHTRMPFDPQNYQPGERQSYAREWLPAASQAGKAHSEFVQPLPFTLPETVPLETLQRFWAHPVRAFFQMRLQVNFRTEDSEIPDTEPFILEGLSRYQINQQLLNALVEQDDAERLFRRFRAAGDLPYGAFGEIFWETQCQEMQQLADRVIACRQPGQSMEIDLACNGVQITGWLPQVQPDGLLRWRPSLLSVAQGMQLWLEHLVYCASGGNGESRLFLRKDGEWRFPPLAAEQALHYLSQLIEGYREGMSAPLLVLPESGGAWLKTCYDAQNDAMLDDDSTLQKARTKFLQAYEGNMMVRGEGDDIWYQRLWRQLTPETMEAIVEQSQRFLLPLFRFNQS
T1 sequence (P08394 whole entry): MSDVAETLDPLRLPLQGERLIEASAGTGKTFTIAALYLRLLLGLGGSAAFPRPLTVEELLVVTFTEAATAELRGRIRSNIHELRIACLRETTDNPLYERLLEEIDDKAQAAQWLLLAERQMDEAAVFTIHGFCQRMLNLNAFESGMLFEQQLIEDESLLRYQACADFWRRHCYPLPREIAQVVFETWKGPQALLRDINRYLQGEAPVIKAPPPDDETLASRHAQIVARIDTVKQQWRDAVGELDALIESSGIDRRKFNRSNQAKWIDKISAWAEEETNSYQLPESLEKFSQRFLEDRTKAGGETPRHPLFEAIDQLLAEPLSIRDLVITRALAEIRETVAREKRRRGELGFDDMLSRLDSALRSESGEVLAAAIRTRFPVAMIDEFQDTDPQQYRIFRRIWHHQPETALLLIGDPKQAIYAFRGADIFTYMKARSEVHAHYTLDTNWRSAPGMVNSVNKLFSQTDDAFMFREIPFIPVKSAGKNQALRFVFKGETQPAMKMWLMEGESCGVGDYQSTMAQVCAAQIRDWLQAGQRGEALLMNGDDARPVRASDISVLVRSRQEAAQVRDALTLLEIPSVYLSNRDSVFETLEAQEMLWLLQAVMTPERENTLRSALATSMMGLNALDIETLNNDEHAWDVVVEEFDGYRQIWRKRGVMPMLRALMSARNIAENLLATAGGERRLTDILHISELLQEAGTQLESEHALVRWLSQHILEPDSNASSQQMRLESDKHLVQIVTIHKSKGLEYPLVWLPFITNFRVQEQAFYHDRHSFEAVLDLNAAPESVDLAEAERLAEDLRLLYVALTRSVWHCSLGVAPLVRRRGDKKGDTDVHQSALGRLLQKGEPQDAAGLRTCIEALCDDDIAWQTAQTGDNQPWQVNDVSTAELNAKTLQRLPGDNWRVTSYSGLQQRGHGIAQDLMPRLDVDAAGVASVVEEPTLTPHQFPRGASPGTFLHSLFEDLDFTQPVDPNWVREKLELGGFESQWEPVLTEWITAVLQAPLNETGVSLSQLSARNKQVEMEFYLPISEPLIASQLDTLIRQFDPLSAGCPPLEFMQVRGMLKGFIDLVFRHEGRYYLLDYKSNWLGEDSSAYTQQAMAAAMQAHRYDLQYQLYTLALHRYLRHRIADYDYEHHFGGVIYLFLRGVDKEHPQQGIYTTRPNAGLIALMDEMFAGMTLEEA
Test: E. coli RecBCD inhibitors, dose response, counter-screen for AddAB inhibitor project, absorbance, V66 E. coli, mutant T4 phage (AID 492957)
Assay type: functional, cell-based, Escherichia coli str. K-12 substr. MG1655

Compound: CCSc1nsc(NC(=O)Nc2cccc(F)c2)n1
- IC50: > 119 µM (inactive)

Compound: O=[N+]([O-])c1ccc(/C=N/n2cnc3ccccc32)s1
- IC50: > 119 µM (inactive)
